The results in this text go back to patent US20260242320A1, “USE OF CANNABIDIOL DERIVATIVE IN PREPARATION OF MEDICAMENT” (priority 2023, published 2026).

The test system of one test is BV-2 cells. The test can be described thus: Cellular ATP assay. The test is classed as cell-based. The conditions noted are these: 10 μM, 2 h. As to the method: BV-2 cells were seeded at a density of 5×10^5 cells per well in 6-well plates and incubated for 24 h. BV-2 cells were treated with 10 μM CIAC001 or 10 μM Compound 19b for 2 h. Cellular ATP was measured by an enhanced ATP assay kit (S0027-4, Beyotime Biotechnology Co., Ltd., Shanghai, China).

The subject of test [1] is 3×Tg Alzheimer's disease mice. The test can be described thus: Learning and memory tests in Alzheimer's disease model mice (Morris water maze, Y-maze). The class given is in vivo. As to conditions: i.p., 45 days. The source says: For Alzheimer's disease behavioral experiments (Morris water maze, open field experiment, novel object recognition, Y-maze, and elevated cross maze), triple transgenic mouse models (B6:129-Psen1tm1Mpm Tg (APPswe, tauP301L) 1Lfa/J, 3×Tg) were purchased from the Jax Laboratory in the United States. The wild-type mice (C57BL/6J, WT) were purchased from Beijing Vital River Laboratory Animal Technology Co., Ltd. After 45 days of intraperitoneal injection of CIAC001, all mice were subjected to subsequent behavioral experiments. In order to minimize the use of mice, the mice are first tested for sufficient physical strength and normal mental states. Only one behavioral experiment is conducted per day based on the following schedule: day 1: open field test; day 2-3: novel object recognition; day 3: elevated plus maze; day 4: Y-maze; day 5-13: Morris water maze. […]
Place navigation training was performed from days 1 to 5. […] The time taken for the mouse to find the platform was recorded, representing the mouse's escape latency. […]
The spatial exploration test was conducted 24 hours and 72 hours after completion of place navigation training. The test conducted at 24 hours assessed short-term memory, while the test performed at 72 hours assessed long-term memory. […]

The target in test [2] is T1, nuclear PKM2 in BV-2 cells (Mus musculus, UniProt P52480).
T1 construct: endogenous in cells; host or cells: BV-2 cells
T1 sequence (P52480 whole entry): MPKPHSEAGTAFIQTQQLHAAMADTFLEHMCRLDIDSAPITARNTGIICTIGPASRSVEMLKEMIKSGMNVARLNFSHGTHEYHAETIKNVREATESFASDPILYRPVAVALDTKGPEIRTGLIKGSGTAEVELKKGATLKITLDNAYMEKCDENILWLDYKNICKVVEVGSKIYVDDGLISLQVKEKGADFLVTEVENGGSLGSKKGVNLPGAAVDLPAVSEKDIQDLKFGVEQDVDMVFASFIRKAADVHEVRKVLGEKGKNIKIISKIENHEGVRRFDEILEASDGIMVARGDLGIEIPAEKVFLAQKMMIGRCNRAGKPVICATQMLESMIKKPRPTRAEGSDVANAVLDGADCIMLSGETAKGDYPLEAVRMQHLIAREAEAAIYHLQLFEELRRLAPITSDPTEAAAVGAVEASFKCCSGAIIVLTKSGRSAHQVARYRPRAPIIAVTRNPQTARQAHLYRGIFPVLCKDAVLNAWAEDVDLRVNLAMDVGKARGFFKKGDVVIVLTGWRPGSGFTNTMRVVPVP
Briefly: Subcellular localization of PKM2. The test is classed as cell-based. The conditions noted are these: BV-2, LPS 200 ng/mL, 10 μM, 6 h. On the procedure: BV-2 cells were treated with 200 ng/mL LPS and 10 μM CIAC001 for 6 h. Cells were washed, harvested with ice-cold PBS, and centrifuged at 800 g for 5 min at 4° C. Cells were lysed in cytoplasmic lysis buffer (10 mM HEPES pH 7.6, 10 mM KCl, 0.5 mM […], 1.5 mM MgCl2, and 1 mM DTT) plus the protease inhibitor cocktail for 20 min on ice. A final concentration of 0.5% NP40 was added to the lysate and incubated for 2 min on ice. Lysates were centrifuged at 2000 g for 10 min at 4° C., and the supernatants were cytoplasmic lysates. Pellets were washed twice with ice-cold PBS. Nuclear pellets were lysed for 30 min on ice with nuclear lysis buffer (10 mM Tris-HCl pH 7.6, 450 mM NaCl, 2 mM MgCl2, 0.5% NP-40, and 1 mM DTT) plus a protease inhibitor cocktail. Lysates were centrifuged at 12,000 g for 10 min at 4° C., and the supernatants were nuclear lysates. The nuclear lysates were diluted with low-salt buffer (10 mM Tris-HCl pH 7.6 and 2 mM MgCl2) to a final salt concentration of 150 mM in the lysates. The total protein concentrations in the nuclear and cytoplasmic extracts were determined by the BCA assay and then normalized. The lysate supernatants were denatured in 2× Laemmli sample buffer at 100° C. for 8 min for western blotting with the corresponding antibody.

In test [3] the target is T2, endogenous PKM2 in BV-2 cell lysate (Mus musculus, UniProt P52480).
T2 construct: endogenous in cells; host or cells: BV-2 cells
T2 sequence (P52480 whole entry): as above
The test can be described thus: Cellular thermal shift assay (CETSA). The test is classed as binding. On the procedure:
For CETSA experiments, BV-2 cells were seeded at a density of 4×10^5 cells/mL in 10 cm petri dishes. After 24 h, the medium was removed, and cells were washed with cold PBS (3.0 mL) 3 times and harvested by scraping. Cells were then isolated by centrifugation (1000 g, 5 min, 4° C.) and resuspended in cell lysis buffer (P0013, Beyotime Biotechnology) with the 1% protease inhibitor cocktail and then incubated on ice for 10 min. The lysates were centrifuged (12,000 g, 15 min, 4° C.), and the supernatants were collected. CIAC001 (50 μM) or vehicle control was incubated with BV-2 cell lysate supernatant for 2 h at 20° C. The lysate supernatants were divided into 60 μL each in microtubes. The lysates were heated at different temperatures (37-72° C.) for 5 min on a Long Gene A200 thermal cycler and cooled down at 25° C. for another 3 min. The samples were stored on ice until centrifugation (20,000 g, 4° C., 20 min) to remove precipitates. The lysate supernatants were denatured in 2× Laemmli sample buffer at 100° C. for 8 min for western blotting with the PKM2 antibody

Entries after “also recorded” stand apart in the source; their conditions may differ.

For the molecule `C=C(C)[C@@H]1CCC(C)=C[C@H]1c1c(O)cc(C(C)n2nccn2)cc1O` (stereo partly drawn) [CIAC001, (1′R,2′R)-4-(1-(2H-1,2,3-Triazol-2-yl)ethyl)-5′-methyl-2′-(prop-1-en-2-yl)-1′,2′,3′,4′-tetrahydro-[1,1′-biphenyl]-2,6-diol], in the test with BV-2 cells, the ATP level result is given as “increase the ATP level”. In addition, the “learning and memory abilities of Alzheimer's disease mice” value in test [1] was “improves learning and memory abilities of Alzheimer's disease mice at a lower dose than cannabidiol”. For the same molecule, in test [2], the “LPS-induced translocation of nuclear PKM2” value is “completely reversed; also recorded: inhibited LPS-induced translocation of nuclear PKM2”. For the same molecule, in test [3], the ΔTm at 50 µM turned out to be 3.9 ± 1.3 °C.

As a reminder, the ΔTm is the change in melting temperature against a reference sample.
